Assay [1] relates to A1 (MLH1+ve, MMR proficient). The experiment in a line: Modified MTT assay, A1 line (A2780/cp70 + chromosome 3, MLH1 +ve). It counts as cell-based, human. As for the experimental part:
(§1) Relative drug sensitivities (Resistance Factor) and IC50 values were determined by a modified MTT assay (see, e.g., Mosmann, 1983; Plumb et al., 1989), as described below: • (1) Trypsinise a sub-confluent monolayer culture and collect cells in growth medium containing serum. Centrifuge the suspension (200 g, 5 minutes) to pellet cells, re-suspend in growth medium, and count cells. Dilute cells to a density of 5×10^3 cells/mL allowing 60 mL of cell suspension for 3 microtitre plates. Transfer cell suspension to a 10 cm petri dish, and with a multichannel pipette add 200 μL to each well of the central 10 columns of a flat bottomed 96-well plate (80 wells per plate) starting with column 2 and ending with column 11. Add 200 μL of growth medium to the 8 wells in columns 1 and 12. Put the plates in a plastic box and incubate in a humidified atmosphere at 37° C. for 2-3 days so that cells are in the exponential phase of growth for drug addition. • (2) Prepare a serial 5-fold dilution of the cytotoxic drug in growth medium to give 8 concentrations. Pipette 6 mL of growth medium in to each of 7 universal containers (30 mL). Prepare 10 mL of the highest concentration of the drug and transfer 1.5 mL of this solution to the first universal container. Mix and then transfer 1.5 mL to the next universal container. Continue until the seventh universal container is reached. The concentrations should be chosen so that the highest concentration kills most of the cells and the lowest kills none of the cells. Normally, three plates are used for each drug to give triplicate determinations within one experiment. • (3) The medium is removed from all the wells in columns 2 to 11. This can be achieved with a hypodermic needle attached to a suction line. Cells in the 8 wells in columns 2 and 11 are fed with 200 μL of fresh growth medium. The drug solutions are transferred to 10 cm petri dishes and 200 μL added to all 8 wells of a column. For ease of analysis arrange the drug solutions in order so that the highest is in column 3 down to the lowest in column 10. Plates are returned to the plastic box and incubated for 24 hours. • (4) At the end of the drug exposure period, the medium is removed from all wells containing cells and the cells are fed with 200 μL of fresh medium. • (5) The plates are fed daily for two more days. • (6) The plates are fed with 200 μL of fresh medium and 50 μL of the MTT solution (5 mg/mL in PBS) is added to all wells in columns 1 to 11. Plates are wrapped in aluminium foil and incubated for 4 hours in a humidified atmosphere at 37° C. • (7) The medium and MTT are then removed from the wells and the purple MTT-formazan crystals dissolved by addition of 200 μL of DMSO to all wells in columns 1 to 11. Glycine buffer is added (25 μL per well) to all wells containing DMSO. • (8) Absorbance is recorded at 570 nm with the wells in column 1, which contained medium and MTT but no cells used as a blank. • (9) A graph is plotted of absorbance (y-axis) against drug concentration (x-axis). The mean absorbance reading from the wells in columns 2 and 11 is used as the control absorbance and the IC50 concentration is determined as the drug concentration required to reduce the absorbance to half that of the control. IC10 or IC90 values can be determined in the same manner.
A1, E1, and A2 are derived by transfer of human chromosome 3 into A2780/cp70. MLH1 is located on chromosome 3.
IC50 values (μM) for A1 (MLH1+ve, MMR proficient) or E1 (MLH1+ve, MMR proficient) and A2 (MLH1−ve, MMR deficient) lines and Resistance Factors (RF) (the fold difference in resistance between the A2 line, MMR deficient, and the A1 line, MMR proficient) were determined based on the MTT assay described above for several compounds of the present invention (including, e.g., MMR201). Compounds showing increased activity against the MLH1 deficient A2 line compared to the MLH1 proficient A1 or E1 line have RF values less than 1.

For a further assay, the system named is RKO (MLH1). The experiment in a line: Modified MTT assay, colon panel RKO. It counts as cell-based. The procedure: (§2) Relative drug sensitivities (Resistance Factor) and IC50 values were determined by a modified MTT assay (see, e.g., Mosmann, 1983; Plumb et al., 1989), as described below: • (1) Trypsinise a sub-confluent monolayer culture and collect cells in growth medium containing serum. Centrifuge the suspension (200 g, 5 minutes) to pellet cells, re-suspend in growth medium, and count cells. Dilute cells to a density of 5×10^3 cells/mL allowing 60 mL of cell suspension for 3 microtitre plates. Transfer cell suspension to a 10 cm petri dish, and with a multichannel pipette add 200 μL to each well of the central 10 columns of a flat bottomed 96-well plate (80 wells per plate) starting with column 2 and ending with column 11. Add 200 μL of growth medium to the 8 wells in columns 1 and 12. […] Glycine buffer is added (25 μL per well) to all wells containing DMSO. • (8) Absorbance is recorded at 570 nm with the wells in column 1, which contained medium and MTT but no cells used as a blank. • (9) A graph is plotted of absorbance (y-axis) against drug concentration (x-axis). The mean absorbance reading from the wells in columns 2 and 11 is used as the control absorbance and the IC50 concentration is determined as the drug concentration required to reduce the absorbance to half that of the control. IC10 or IC90 values can be determined in the same manner. […]
In general terms: Formazan colour is commonly taken as a measure of viable cells.

Another assay has as its system T84. The assay is described as follows: Modified MTT assay, colon panel T84. In kind it is cell-based. The procedure: as §2
Another assay deals with T47D. The experiment in a line: Cancer cell line panel, T47D (breast). It counts as cell-based. As for the experimental part:
as §2

A further assay has as its system C8161. The experiment in a line: Cancer cell line panel, C8161 (melanoma). In kind it is cell-based. As for the experimental part: as §2
For the next assay, the system named is HS852. The assay is described as follows: Cancer cell line panel, HS852 (melanoma). In kind it is cell-based. As for the experimental part:
as §2

In another assay the test system is A549. The assay is described as follows: Cancer cell line panel, A549 (NSCLC). It counts as cell-based. The procedure:
as §2

The next assay has as its system MCF7. The experiment in a line: Cancer cell line panel, MCF7 (breast). In kind it is cell-based. As for the experimental part: as §2
The next assay deals with HCT15 (MSH6). The experiment in a line: Modified MTT assay, colon panel HCT15. It counts as cell-based. As for the experimental part:
as §2

The test system of another assay is HCT116 (MLH1). The experiment in a line: Modified MTT assay, colon panel HCT116. In kind it is cell-based, human. The procedure:
as §2

The test system of another assay is BE. The assay is described as follows: Modified MTT assay, colon panel BE. It counts as cell-based. As for the experimental part:
as §2

For the next assay, the system named is OVCAR3. The assay is described as follows: Cancer cell line panel, OVCAR3 (ovary). In kind it is cell-based. The procedure: as §2
The subject of a further assay is A2780. The experiment in a line: Modified MTT assay, A2780 (parental, MMR proficient). It counts as cell-based, human. As for the experimental part: as §1
A2780/cp70 and A2780/mcp1 have lost expression of MLH1, have lost MMR activity, and have microsatellite instability compared to A2780. The CpG island at the MLH1 gene is methylated in A2780/cp70 and A2780/mcp1, but not A2780.
IC50 values (μM) for A2780, A2780/cp70, and A2780/mcp1 and Resistance Factors (RF) (the fold difference in resistance from parental A2780) were determined based on the MTT assay described above for several compounds of the present invention (including, e.g., MMR201).

The next assay deals with WIL. The assay is described as follows: Cancer cell line panel, WIL (NSCLC). It counts as cell-based. The procedure: as §2
For another assay, the system named is H125. The experiment in a line: Cancer cell line panel, H125 (NSCLC). It counts as cell-based. As for the experimental part: as §2
A further assay concerns OVCAR4. The experiment in a line: Cancer cell line panel, OVCAR4 (ovary). It counts as cell-based. The procedure: as §2

Where “and” joins values, the source holds several entries; their conditions need not be identical. Identical values can stand only once. Like-named read-outs stand apart in the source and are kept apart here.

As to `N.N.[Cl][Pt][Cl]` [Cisplatin, reference compound], the IC50 in assay [1] (read-out: A1 or E1 MLH1 +ve MMR proficient IC50) stood at 0.715 ± 0.069 µM; in the assay on RKO (MLH1) (read-out: Cisplatin IC50, MMR deficient), 4.01 ± 0.1 µM; in the assay with T84 (read-out: Cisplatin IC50, MMR proficient, p53 ?), 4.23 ± 0.86 µM; with T47D (read-out: Cisplatin), 5.42 ± 0.22 µM; in the assay on C8161 (read-out: Cisplatin), 3.46 ± 0.16 µM; in the assay with HS852 (read-out: Cisplatin), 1.6 ± 0.09 µM. In addition, the IC50 in the assay on A549 (read-out: Cisplatin) is 1.13 ± 0.04 µM; in the assay on MCF7 (read-out: Cisplatin) it was 1.78 ± 0.17 µM; in the assay with HCT15 (MSH6) (read-out: Cisplatin IC50, MMR deficient, p53 wt/mut), 2.92 ± 0.02 µM; in the assay with HCT116 (MLH1) (read-out: Cisplatin IC50, MMR deficient, p53 wt), 2.13 ± 0.03 µM; in the assay with BE (read-out: Cisplatin IC50, MMR status unknown, p53 ?), 8.67 ± 1.42 µM; in the assay on OVCAR3 (read-out: Cisplatin) it was 0.239 ± 0.02 µM. The IC50 is 0.215 µM and 0.244 µM with A2780 (24 hour drug exposure); 3.94 ± 0.22 µM with WIL (read-out: Cisplatin); 3.69 ± 0.43 µM in the assay on H125 (read-out: Cisplatin); 1.64 ± 0.15 µM in the assay on OVCAR4 (read-out: Cisplatin).

Take `CC[n+]1c(/C=C2\Sc3oc4ccccc4c3N2C)ccc2cc(C)ccc21.[I-]` [MMR201]: the IC50 in assay [1] (Homo sapiens, A2780/CP70, read-out: A1 or E1 MLH1 +ve MMR proficient IC50) is 0.121 ± 0.018 µM; with RKO (MLH1) (MMR deficient, read-out: MMR201 IC50), 0.0272 ± 0.0007 µM; in the assay on T84 (Homo sapiens, MMR proficient, p53 ?, read-out: MMR201 IC50), 1.47 ± 0.175 µM; in the assay with T47D (Homo sapiens, read-out: MMR201), 0.319 ± 0.026 µM; in the assay on C8161 (Homo sapiens, read-out: MMR201) it was 0.2542 ± 0.0004 µM; with HS852 (read-out: MMR201), 0.0753 ± 0.0071 µM. The IC50 in the assay on A549 (Homo sapiens, read-out: MMR201) turned out to be 0.119 ± 0.0106 µM; in the assay on MCF7 (Homo sapiens, read-out: MMR201) it was 0.87 ± 0.0548 µM; in the assay with HCT15 (MSH6) (Homo sapiens, HCT-15, MMR deficient, p53 wt/mut, read-out: MMR201 IC50) it was 0.584 ± 0.0551 µM; with HCT116 (MLH1) (Homo sapiens, HCT-116, MMR deficient, p53 wt, read-out: MMR201 IC50) it was 0.0379 ± 0.0031 µM; with BE (MMR status unknown, p53 ?, read-out: MMR201 IC50), 0.125 ± 0.0173 µM; with OVCAR3 (Homo sapiens, OVCAR-3, read-out: MMR201), 0.253 ± 0.022 µM. In addition, the IC50 turned out to be 0.058 ± 0.005 µM with A2780 (Homo sapiens, A2780, 24 hour drug exposure); 0.153 ± 0.0137 µM in the assay with WIL (read-out: MMR201); 0.13 ± 0.015 µM with H125 (Homo sapiens, NCI-H125, read-out: MMR201); 0.733 ± 0.0412 µM with OVCAR4 (Homo sapiens, OVCAR-4, read-out: MMR201).

Source of the values: patent US20090247579A1, “2-[3H-THIAZOL-2-YLIDINEMETHYL]PYRIDINES AND RELATED COMPOUNDS AND THEIR USE” (CANCER RESEARCH TECHNOLOGY LIMITED, priority 2006, published 2009).
